Source: patent US11136328B2, “3,3-difluoropiperidine carbamate heterocyclic compounds as NR2B NMDA receptor antagonists” (Rugen Holdings (Cayman) Limited, priority 2015, dated 2021)

Tests used:
rats [1] = assay: Electroconvulsive Threshold Test (ECT); format: in vivo
Protocol: (§1) Test compound E1-8.2 was administered as the free base.
Rats were administered ECS (rectangular current: 0.6 ms pulse width, 1.5 s duration, 200 Hz) via earclip electrodes connected to a constant current shock generator (Ugo Basile: type 7801). Test compounds were administered by oral gavage (p.o.) 1 hour before the test at a dose volume of 5 mL/kg.
Treatment groups of 20 rats were exposed to ECS as follows: The first animal was exposed to 30 mA of ECS. […] (increases of 5 mA) until the first tonic convulsion was observed. Once the first tonic convulsion was observed, the intensity of ECS was decreased by 2 mA for the next animal and then decreased or increased by 2 mA from animal to animal depending on whether the previous animal convulsed or not. If the first animal did convulse (tonic convulsions) within 5 seconds, animal no 2 is exposed to 25 mA, etc. . . . (decreases of 5 mA) until the absence of tonic convulsions was observed. At this point, the intensity of ECS was increased by 2 mA for the next animal and then decreased or increased by 2 mA from animal to animal depending on whether the previous animal convulsed or not. The minimum current intensity applied is 5 mA and the maximum 95 mA. The first 5 animals serve to approach threshold current and were not included in the analysis. The results are presented as the mean current intensity administered to the final 15 animals of a group. The test was performed blind. A positive percent change indicates an anticonvulsant effect. A negative percent change indicates a proconvulsant effect. The test substance was evaluated at 4 doses, typically using 0.5% dimethylsulfoxide, 4% hydroxypropyl-b-cyclodextrin water as a vehicle, and administered p.o. 60 minutes before ECS, and compared with a vehicle control group. Diazepam (16 mg/kg p.o.), administered under the same experimental conditions, was used as reference substance. The experiment included 6 groups. Data with the test substance was analyzed by comparing treated groups with vehicle control using one-way ANOVA followed by Dunnett's t tests.

rats [2] = assay: Pentylenetetrazole (PTZ) Seizure Test; format: in vivo; conditions: 10 mg/kg p.o. 30 min before PTZ 100 mg/kg s.c.
Protocol: Rats, placed in individual macrolon cages (25×19×13 cm), were injected with pentylenetetrazole (PTZ) (100 mg/kg s.c.). The occurrence and latency of clonic and tonic convulsions and death were noted over a 30 minute period. 15 rats were studied per group. The test was performed blind.
as §1
Compounds were evaluated typically using 0.5% dimethylsulfoxide, 4% hydroxypropyl-b-cyclodextrin water as a vehicle at 1 or more doses (e.g., 1, 3 and 10 mg/kg), administered p.o. 30 minutes before PTZ, and compared with a vehicle control group. Diazepam (16 mg/kg p.o.), administered 60 minutes before PTZ, was used as reference substance. The experiment was performed over 2 separate sub-experiments with N=7 to 8 animals per group and per sub-experiment. Quantitative data (latencies) with the test substance was analyzed by comparing treated groups with vehicle control using Kruskal-Wallis test followed by Mann-Whitney U test. Quantitative data with the reference substance was analyzed using Mann-Whitney U test. Quantal data (frequencies) was analyzed by comparing treated groups with vehicle control using Fisher's Exact Probability tests (*=p<0.05; **=p<0.01; ***=p<0.001).

CYP2D6 = CYP2D6 (Homo sapiens (Human), UniProt P10635); assay: CYP P450 enzyme inhibition in pooled human liver microsomes; format: in vitro ADME; conditions: 10 μM compound, pooled HLM
Sequence of CYP2D6 (P10635 whole entry): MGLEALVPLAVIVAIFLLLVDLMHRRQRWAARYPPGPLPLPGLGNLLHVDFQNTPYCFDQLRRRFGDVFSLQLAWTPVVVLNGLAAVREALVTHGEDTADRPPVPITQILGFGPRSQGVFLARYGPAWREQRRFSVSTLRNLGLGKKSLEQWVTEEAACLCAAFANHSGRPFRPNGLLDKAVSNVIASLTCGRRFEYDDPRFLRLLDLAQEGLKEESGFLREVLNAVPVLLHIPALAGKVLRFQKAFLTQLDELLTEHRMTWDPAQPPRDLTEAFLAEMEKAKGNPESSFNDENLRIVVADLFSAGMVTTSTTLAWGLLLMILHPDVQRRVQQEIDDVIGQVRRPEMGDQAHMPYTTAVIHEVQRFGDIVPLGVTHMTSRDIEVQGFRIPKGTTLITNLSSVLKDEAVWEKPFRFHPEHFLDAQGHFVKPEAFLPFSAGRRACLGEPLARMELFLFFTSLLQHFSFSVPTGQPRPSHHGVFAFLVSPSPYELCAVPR
Protocol: Those CYP isoforms and their corresponding probe substrates are as follows: CYP1A2 (phenacetin, 30 μM), CYP2C9 (tolutamide, 100 μM), CYP2C19 (S-mephenytoin, 40 μM), CYP2D6 (dextromethorphan, 5 μM) and CYP3A4 (midazolam, 1 μM). All probe substrates were used at concentrations near or below their Kms. For experiment, a reaction mixture of test compound at 10 μM or in serial dilution, CYP probe substrate described above and 0.2 mg/mL pooled HLM in phosphate buffer, pH 7.4 in a final volume of 200 μL was pre-incubated at 37° C. for 10 minutes in triplicate. The reaction was initiated by addition of NADPH at final concentration of 1 mM. The reaction was terminated after 10 minutes (CYP1A2, CYP2D6 and CYP3A4) or 30 minutes (CYP2C9 and CYP2C19) by addition of 100 μL ice-cold acetonitrile with internal standard (IS). The samples were then centrifuged at 13,000 rpm and the supernatants were injected to LC-MS/MS (Agilent Technologies) to quantify the concentration of the specific metabolites of the probe substrates formed by individual CYP450 isoforms. The inhibition ratio is calculated as: (Mt−M0)/Mwater×100% in which Mt and M0 represent the concentrations of the specific probe substrate metabolite, which was formed by individual CYP450 isoform, at the beginning and end of the reaction in the presence of test compound; while Mwater represents the concentration of the specific metabolite at the end of the reaction in the absence of test compound. Test compound concentration-dependent response data experiments performed in triplicate.

hERG channel = hERG channel (Homo sapiens (Human), UniProt Q12809); assay: hERG channel inhibition, whole cell patch clamp; format: cell-based; conditions: 10 μM compound
Sequence of hERG channel (Q12809 whole entry): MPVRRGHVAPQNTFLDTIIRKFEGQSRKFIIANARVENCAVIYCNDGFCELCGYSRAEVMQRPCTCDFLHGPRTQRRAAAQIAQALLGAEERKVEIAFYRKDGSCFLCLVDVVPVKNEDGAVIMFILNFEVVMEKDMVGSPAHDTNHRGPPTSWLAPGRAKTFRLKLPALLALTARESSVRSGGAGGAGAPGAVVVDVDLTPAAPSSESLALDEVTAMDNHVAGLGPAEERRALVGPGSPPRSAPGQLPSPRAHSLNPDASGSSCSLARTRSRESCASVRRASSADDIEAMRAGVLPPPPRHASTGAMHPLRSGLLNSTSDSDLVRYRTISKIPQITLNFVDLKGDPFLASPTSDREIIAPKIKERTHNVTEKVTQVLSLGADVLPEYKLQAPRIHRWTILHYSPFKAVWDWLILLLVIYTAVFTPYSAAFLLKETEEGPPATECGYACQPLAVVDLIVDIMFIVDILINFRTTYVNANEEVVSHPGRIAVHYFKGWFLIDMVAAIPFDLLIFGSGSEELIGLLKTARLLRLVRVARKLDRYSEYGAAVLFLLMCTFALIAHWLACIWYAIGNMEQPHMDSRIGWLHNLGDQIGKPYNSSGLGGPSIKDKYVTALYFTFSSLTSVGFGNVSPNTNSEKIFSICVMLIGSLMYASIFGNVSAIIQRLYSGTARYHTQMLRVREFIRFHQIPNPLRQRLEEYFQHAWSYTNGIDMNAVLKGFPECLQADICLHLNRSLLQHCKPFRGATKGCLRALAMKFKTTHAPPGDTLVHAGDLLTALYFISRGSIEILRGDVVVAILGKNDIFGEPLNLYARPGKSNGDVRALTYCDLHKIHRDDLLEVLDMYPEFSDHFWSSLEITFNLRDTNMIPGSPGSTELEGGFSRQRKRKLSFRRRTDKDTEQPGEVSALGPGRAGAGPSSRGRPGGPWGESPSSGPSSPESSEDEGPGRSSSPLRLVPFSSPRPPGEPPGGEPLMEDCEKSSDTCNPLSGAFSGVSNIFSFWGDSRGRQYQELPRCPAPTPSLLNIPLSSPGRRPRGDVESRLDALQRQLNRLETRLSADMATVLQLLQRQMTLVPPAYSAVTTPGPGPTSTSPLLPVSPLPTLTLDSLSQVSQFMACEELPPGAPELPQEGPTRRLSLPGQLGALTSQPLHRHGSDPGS
Protocol: The assay was performed on hERG channel stably expressed in HEK293 cells. The cells were cultured at 37° C. in a humidified CO2 incubator in the growth medium consisting of DMEM, 10% fetal bovine serum and antibiotics. Prior to the assay, the cells were seeded onto a 12 mm PDL-coated glass coverslip and cultured in a 35 mm Petri dish. After 16 to 40 hr culture, the cover slip was transferred into the chamber of OctaFlow perfusion system (ALA Instrument) and under a constant flow of extracellular solution (140 mM NaCl, 4 mM KCl, 1 mM MgCl2, 2 mM CaCl2, 10 mM HEPES, 10 mM D-glucose, pH 7.35, osmolarity 290). Whole cell patch clamping was performed with a glass micropipette filled with intracellular solution (120 mM KCl, 1.75 mM MgCl2, 5.4 mM CaCl2, 10 mM HEPES, 10 mM EGTA, and 4 mM ATP-K2, PH 7.2, osmolarity 310). Giga-seal was maintained during the test. The voltage control and current measurement were carried out using Axon amplifier 700B, Digidata 1440A and CLAMPEX10 software (Molecular Devices). Whole-cell hERG currents were recorded following the Petroski protocol: the cell was held at −80 mV, and the voltage step jumped from −80 to 30 mV and stay for 2 sec with a 20 ms prepulse at −40 mV. After depolarization, the voltage was decreased to −40 mV and stay for 2 sec, and returned back to −80 mV. Test compound was applied by quartz capillary tubes tip (200 μm inner diameter), and the flow rate was controlled at 2-3 ml/min with OctaFlow perfusion system. Different concentrations of the compound were applied to the cells for 5 min and the hERG current was measured three times before, during and after compound treatment. The data were analyzed using Clampfit 10 software (Molecular Devices) to generate IC50 values.

rats [3] = assay: Forced Swim Test in rats; format: in vivo, Wistar rats
Text: (§2) The forced swim test (FST) also known at the behavioural despair test was used to evaluate antidepressant activity (Porsolt et al., 1977 Arch. Int. Pharmacodyn. 229: 327-336, Porsolt et al., 1977, Eur. J. Pharmacol. 47:379-391). Mice or rats that are forced to swim in a situation from which they cannot escape, rapidly become immobile. Drugs with antidepressant activity, such as imipramine, reduce the amount of time spent in the immobile state. Therefore, the amount of immobility time during a test conducted after drug administration represents a useful indicator of antidepressant activity (Lucki et al 2001 Psychopharmacology 155:315-322; Porsolt et al., 1977, Nature 266:730-732).
Male Wistar rats weighing 197-251 g were used for the rat test. Rats were evaluated according to a two-session procedure with a swimming session of 15 minutes on the first day of the experiment (Session 1) followed 24 hours later by a 5-minute swimming test (Session 2). […] Rats were placed in the water 24 h later for 5 minutes (Session 2) and the duration of immobility was measured.
(§3) Animals were observed by a blinded observer. […] The amount of time each animal spent in the immobile state (and the latency to the first bout of immobility) was recorded and used for statistical analysis of compound effect. […]

mice = assay: Forced Swim Test in mice; format: in vivo
Text: as §2
Mice were evaluated in a single swimming test session of 6 minutes. Mice were placed in a transparent plastic cylinder 24 cm high with a diameter of 13 cm containing 10 cm of water with ambient temperature control generally from 22±2° C. Mice were placed in the water for 6 minutes and the duration of immobility during the last 4 minutes was measured.
as §3, with “effect. Group differences were evaluated by student's t-test (reference substance) or one-way ANOVA followed by post-hoc Dunnett's test (test substances).” for “effect.”
Male mice (strain NLMN) weighing 25-35 g were used for testing. […] The mice were videotaped for 6 minutes, and the last 4 minutes of video were analyzed by a blinded observer off-line. […] The amount of time each animal spent in the immobile state was recorded and used for statistical analysis of compound effect. Group differences were evaluated by student's t-test or one-way ANOVA followed by post-hoc Dunnett's test.
Mice were individually placed in a cylinder (height=24 cm; diameter=13 cm) containing 10 cm water (22° C.) from which they cannot escape. The mice were placed in the water for 6 minutes and the duration of immobility during the last 4 minutes was measured. […]

CN1C(=O)CN=C(c2ccccc2)c2cc(Cl)ccc21 [diazepam, reference compound]
activity on electroconvulsive threshold (rats [1]; 16 mpk p.o.): showed the expected anticonvulsant activity

Cc1ccc(COC(=O)N2CC[C@H](CNc3cnc(C)cn3)C(F)(F)C2)cc1 [Compound E1-21.26, R-4-methylbenzyl 3,3-difluoro-4-((5-methylpyrazin-2-ylamino)-methyl)piperidine-1-carboxylate]
change in latency to death (rats [2]): +31% | change in number of deaths vs vehicle controls (rats [2]): −82% | CYP2D6 @ 10 μM (%) (CYP2D6): 32% | hERG @ 10 μM (%) (hERG channel): 39% | activity on electroconvulsive threshold (rats [1]; 3 and 10 mpk p.o., mesylate salt): anticonvulsant activity

CN(C)CCCN1c2ccccc2CCc2ccccc21 [imipramine]
antidepressant activity (immobility time) (rats [3]; 32 mpk i.p. 3 times: 24 h, 4 h and 30 min before Session 2): showed the expected antidepressant activity | antidepressant activity (immobility time) (rats [3]; 64 mpk p.o. 3 times: 24 h, 4 h and 60 min before Session 2): showed the expected antidepressant activity | antidepressant activity (immobility time) (mice; 32 mpk i.p. once 30 min before the test): showed the expected antidepressant activity | antidepressant activity (immobility time) (mice; 64 mpk p.o. once 60 min before the test): showed the expected antidepressant activity | antidepressant activity (immobility time) (mice; 128 mpk p.o. once 60 minutes before the test on Day 7): showed the expected antidepressant activity

Cn1c(=O)c2[nH]cnc2n(C)c1=O [theophylline, reference compound]
activity on electroconvulsive threshold (rats [1]; 128 mpk p.o.): showed the expected proconvulsant activity

O=C(OCc1ccc(Cl)cc1)N1CC[C@H](CNc2nccn3cnnc23)C(F)(F)C1 [Compound E1-1.3, R-4-chlorobenzyl 4-(([1,2,4]triazolo[4,3-a]pyrazin-8-ylamino)methyl)-3,3-difluoropiperidine-1-carboxylate]
CYP2D6 @ 10 μM (%) (CYP2D6): 37% | hERG @ 10 μM (%) (hERG channel): 19%

FC(F)(F)c1ccc(C(F)(F)CN2CCC(Nc3ncnc4[nH]ncc34)CC2)cc1 [LX-1, reference compound]
CYP2D6 @ 10 μM (%) (CYP2D6): 93%

Cc1ccc(COC(=O)N2CC[C@H](CNc3cncc4nncn34)C(F)(F)C2)cc1 [Compound E1-2.2, R-4-methylbenzyl 4-(([1,2,4]triazolo[4,3-a]pyrazin-5-ylamino)methyl)-3,3-difluoropiperidine-1-carboxylate]
CYP2D6 @ 10 μM (%) (CYP2D6): 18% | hERG @ 10 μM (%) (hERG channel): 32%

Cc1ccc(COC(=O)N2CC[C@H](CNc3nc4ccccn4n3)C(F)(F)C2)cc1 [Compound E1-9.2, (+)-R-4-methylbenzyl 4-(([1,2,4]triazolo[1,5-a]pyridin-2-ylamino)methyl)-3,3-difluoropiperidine-1-carboxylate]
CYP2D6 @ 10 μM (%) (CYP2D6): 14% | hERG @ 10 μM (%) (hERG channel): 38%

O=C(OCc1ccc(F)cc1)N1CC[C@H](CNc2nccn3cnnc23)C(F)(F)C1 [Compound E1-1.4, R-4-fluorobenzyl 4-(([1,2,4]triazolo[4,3-a]pyrazin-8-ylamino)methyl)-3,3-difluoropiperidine-1-carboxylate]
CYP2D6 @ 10 μM (%) (CYP2D6): 19% | hERG @ 10 μM (%) (hERG channel): 11%

Cc1ccc(COC(=O)N2CC[C@H](CNc3cnccn3)C(F)(F)C2)cc1 [Compound E1-21.2, R-4-methylbenzyl 3,3-difluoro-4-((pyrazin-2-ylamino)methyl)piperidine-1-carboxylate]
CYP2D6 @ 10 μM (%) (CYP2D6): 97% | hERG @ 10 μM (%) (hERG channel): 27%

Cc1ccc(COC(=O)N2CC[C@@H](CNc3nccn4cnnc34)C(F)(F)C2)cc1 [Compound E2-1.2, (−)-S-4-methylbenzyl 4-(([1,2,4]triazolo[4,3-a]pyrazin-8-ylamino)methyl)-3,3-difluoropiperidine-1-carboxylate]
hERG @ 10 μM (%) (hERG channel): 22%

Cc1ccc(COC(=O)N2CC[C@H](CNc3ncc4cn[nH]c4n3)C(F)(F)C2)cc1 [Compound E1-8.2, (+)-R-4-methylbenzyl-4-((1H-pyrazolo[3,4-d]pyrimidin-6-ylamino)methyl)-3,3-difluoropiperidine-1-carboxylate]
CYP2D6 @ 10 μM (%) (CYP2D6): 83% | hERG @ 10 μM (%) (hERG channel): 57% | activity on electroconvulsive threshold (rats [1]; 0.5 and 2 mpk p.o., free base): modest proconvulsant activity | activity on electroconvulsive threshold (rats [1]; 10 and 20 mpk p.o., free base): anticonvulsant activity
